Results reported in US20210227843A1, “A TEMPERING COMPOSITION FOR TEMPERING GRAIN AND CONTROLLING PATHOGENS IN AND/OR ON SAID GRAIN, AN OXIDIZING COMPOSITION FOR PREPARING SAID TEMPERING COMPOSITION, A USE OF SAID TEMPERING COMPOSITION AND A METHOD OF USE OF SAID TEMPERING COMPOSITION” (AGRI-NEO INC., priority 2017, published 2021).

Assay: Flour functionality, sensory and physical characteristics after tempering wheat in an organic flour mill (Example 1)
Conditions: 2 L per ton of wheat (citric acid 2 Kg); 16 h hold

SMILES | MIXOLAB Stability [min]
CC(O)C(=O)O (centres unmarked) [Lactic acid] | 17.5
O=C(O)CC(O)(CC(=O)O)C(=O)O [Citric acid] | 13.5
